Experimental data taken from patent US12383628B2 (priority 2016, dated 2025).
Several values for one entry are separate records, joined by “and”; a condition that tells them apart may be missing. Equal entries are not always repeated. Entries after “also recorded” stand apart in the source; their conditions may differ. Where two headings read alike, the source gives them in different places. Square brackets hold non-standard residues; d marks the D form. Ends that are not written are not given here. Peptide text beside a SMILES is read from it. Dmt = Cc1cc(O)cc(C)c1C[C@H](N)C(=O)O

Experiments:
[1] = In vivo monitoring of cargo release with fluorescence imaging; set-up: species or system athymic nude mice
Method: Fluorescent cargo—IRDye800CW N-hydroxysuccinimide (NHS) ester (Li-COR Biosciences) was solubilized at 4 mg/l in PBS. The solution was stirred for 2 h in order to hydrolyze the NHS ester, resulting in compound 2 as fluorescent cargo (MW=1068 g/mol). The dye solution was either used as such, or incorporated within the hydrogel as described below.
Animal study protocols were approved by the Ethical Committee for Animal Experiments of the Vrije Universiteit Brussel (also for section 2.5.). After subcutaneous injection of 150 μl of hydrogel containing 0.5 nmol of IRDye 800CW in athymic nude mice (Charles River, n=3 per group), fluorescence reflectance images of the posterior side of the mice were acquired over 24 h using the Fluobeam800 (Fluoptics) under 2.5% isoflurane anesthesia (Iso-Vet, Eurovet NV/SA). Fluorescence images were overlaid with white light images for anatomical localization. Regions of interest (ROI) were drawn around the site of injection and total fluorescence signal was measured within these ROIs using ImageJ software.

[2] = tested on: L929 mouse fibroblasts; test: Cytotoxicity, Live/Dead viability staining on hydrogels (Example 9); format: cell-based
Method: Hydrogels were prepared at 1, 2 or 3 mg/100 μL as duplicate in a 96-well ULA plate (Cat #CORN3474; Corning-Costar, 60 μL each well). The gels were photographed and pre-equilibrated before seeding with cells. For equilibration, gels were incubated at room temperature in 40 μL of L929 culture medium with double-strength Anti-Anti (Cat #15240062, GIBCO) for 2 h prior to seeding with cells. The equilibration medium was removed before cell seeding and retained to examine if the gels dissolved (even partially) or disintegrated into the culture medium. Next, […] mouse fibroblasts (ATCC) were seeded onto hydrogels at a concentration of 200,000 cells/ml in a volume of 50 μl. The cells were photographed immediately after seeding, observed by microscopy 2 h post-seeding and then observed and photographed at 24 h post-seeding. The cell culture medium consisted of MEM+GlutaMAX I (Cat #41090-036; GIBCO); 10% foetal bovine serum (Cat #12003C; SAFC, Sigma), 2× Anti-Anti (Cat #[…]) and 1× Non-Essential Amino Acids (Cat #41090-036; GIBCO).
Bright field microscopy was performed through use of a IX71 inverted microscope with NIS-Elements F3.0 imaging software (Olympus). The TE2000 Eclipse fluorescent microscope with NIS-Elements AR3.2 software (Nikon) was used for fluorescence imaging microscopy. Automated cell counting was performed on the NC-200 NucleoCounter using proprietary lysis and stabilising reagents and cassettes (ChemoMetec).
The viability and distribution of cells was assessed using a LIVE/DEAD Viability/Cytotoxicity Kit *for Mammalian cells* (Live-Dead Kit), (Cat #13224; Molecular Probes). Briefly, a working solution of live/dead solution was made as per manufacturer's instructions by adding 1.25 μl of Calcein AM (solution A) to 2.5 ml of pre-warmed PBS. The solution was thoroughly mixed by vortex and 2.5 μl of Ethidium homodimer (solution B), was added before vortexing a second time to mix. Excess medium was removed and the gels rinsed with 20 μl of warm PBS before a 40 μl of Live/Dead kit working solution was added to each well. The plate was incubated in a 37° C. cell culture incubator for 20 min before viewing using a fluorescent microscope. Green fluorescence was emitted from the cytoplasm of viable cells (excitation/emission ˜495 nm/˜515 nm) while dead cell nuclei fluoresced red (excitation/emission ˜495/˜635 nm) allowing a distinction to be made between viable and dead cells.

[3] = TEM / cryo-TEM fibre morphology of hydrogels; format: physicochemical
Method: Formvar carbon-coated 400-mesh copper grids (Agar Scientific, Stansted, United Kingdom) were treated with plasma using an ELMO Glow discharge system to clean the grid surface and to render the carbon surface hydrophilic. Hydrogel samples were prepared 12 h in advance as described above. Small aliquots of sample (5 μL) were pipetted onto the carbon grids for adsorption. After 30 s, excess of sample was removed by using a Whatman 541 filter paper. The loaded grids were stained during 10 s with 1% uranyl formate after which the grids were air-dried. Samples were analysed using a JEOL JEM-1400 transmission electron microscope, operating at accelerating voltage of 120 kV. Images were recorded on a CMOS TemCam-F416 camera and accessory software of TVIPS.
200-mesh copper grids coated with perforated carbon film (Lacey carbon film: ProSci-Tech Old, Australia) were used and were glow discharged in nitrogen for 5 s immediately prior to use. Hydrogel samples were prepared 12 h in advance as described above. Small aliquots of sample (4 μL) were pipetted onto the carbon grids for adsorption. After 30 s, excess of sample was removed by using a Whatman 541 filter paper. The grid was then plunged into liquid ethane cooled by liquid nitrogen. Frozen grids were stored in liquid nitrogen until required. Samples were analysed using a Gatan 626 cryoholder and Tecnai 12 Transmission electron microscope, operating at accelerating voltage of 120 kV. Images were recorded using an FEI Eagle 4k×4k CCD camera.

[4] = Dynamic rheometry of hydrogels (storage modulus G′); format: physicochemical; details: 2% w/v in PBS, 37° C., value at 1 Hz
Method: Dynamic rheometry measurements were performed on an AR-G2 rheometer (TA Instruments) equipped with electrically heated plates and a 10 mm-diameter aluminium parallel plate-plate geometry. Viscoelastic properties were measured by oscillatory frequency sweeps at 37° C. in the range between 0.01 and 10 Hz, using a controlled strain of 0.05%. Hydrogel samples were made 12 h in advance. A ring-shaped reservoir filled with a saturated NH4Cl solution was used as a solvent trap.

[5] = for Hydrogel volume remaining: 2 w/v% in PBS, 150 μL s.c.
Method: ^111/n-labeling of DOTA-peptide—^111InCb (5 μl,±4 MBq) (Mallinckrodt) was added to 200 μl 1 mg/ml DOTA-peptide 6, dissolved in 0.2 M ammonium acetate buffer (NH4OAc) pH 5, and incubated for 30 min at 50° C. Radiochemical purity (>95%) was verified by ITIC using 0.1 M citrate buffer pH 5 as mobile phase. 200 μl of ^111In-peptide 6 was diluted up to 1 ml with phosphate buffered saline (PBS, 10 mM) and incorporated within the hydrogel as described below.
After sequential vortexing and sonication, hydrogels (2 w/v¾) were formed and let to rest overnight.
C57Bl/6J mice were purchased by Charles River (n=3 per group) and all experimental procedures were performed under 2.5% isoflurane anesthesia (Iso-vet). 150 μL (0.518±0.037 MBq) of the ^111In-labeled hydrogel (stability experiment) or 150 μL (1.702±0.777 MBq) of hydrogels loaded with ^111In-labeled cargos (cargo release experiment) were injected subcutaneously on the hind limb. For comparison, 150 μL of ^111In-labeled cargos not loaded into a hydrogel were also subcutaneously injected. Immediately after injection, at 1 h30, 3 h, 6 h, 12 h, 24 h, 48 h and 72 h, animals were subjected to a SPECT/CT scan. SPECT images were acquired on an e.cam^180 system (Siemens) equipped with two triple-pinhole collimators designed for ^111In (1.5 mm pinhole opening, 250 mm focal length, 47 mm radius of rotation). Images were acquired over 360° in 64 projections of 30 s into a 128×128 matrix and reconstructed using an iterative algorithm correcting for radioactive decay and allowing automatic fusion with CT images (based on six 57Co fiducial markers). […]
Maximum intensity projections (MIPs) were generated in Osirix Medical Software. Images were quantified using the software AMIDE (sourceforge.net). For the stability experiments, the size of the gel was determined by automatic delineation, for the cargo release experiments, the total radioactivity within a ROI drawn on the hind limb was calculated. Results were expressed as percentage of injected dose remaining in function of time. […]

[6] = tested on: L929 (mouse fibroblast) cells; test: Live/Dead cell viability assay on hydrogels (Example 5); format: cell-based; details: 24 h on hydrogel
Method: L929 (mouse fibroblast) cells were obtained from ATCC® and maintained in Gibco®, MEM with GlutaMAX supplemented with 10% FBS (SAFC, Sigma), 1% Anti-Anti (100×, Gibco®) and 1% NEAA (100×, Gibco®). Cells were maintained on tissue culture treated polystyrene (TCPS) plates at 37° C. in a humified atmosphere containing 5% CO2 and 95% air. Cells were trypsinized, harvested and counted using a hemocytometer. The resulting cell suspension was diluted in Gibco® solution before addition to the hydrogels. For ease of handling and to produce homogeneous clear hydrogels, 100 μL of peptide hydrogels were prepared (in corresponding gelation conditions, see above) in Eppendorf tubes (0.5 ml) and transported using a 21G syringe to 96-well plates after simultaneously heating (60° C.) and mixing (900 rpm) using an Eppendorf ThermoMixer®. The hydrogels were left to set overnight in the wells at room temperature and were subsequently washed twice with 200 μL of Anti-Anti (100×, Gibco®) solution, 2 h each. After washing, media was removed and cells were seeded evenly over hydrogels. Cells were plated in duplicate on all hydrogels and control wells. Viability of cells on hydrogels was determined using the traditional Live/dead cell viability assay (Invitrogen) after culture durations of 24 h.
Plates were incubated in 5% CO2 at 37° C. for 1 day to allow cell attachment and spreading to occur. […]

[7] = in vitro; details: human, plasma, 37° C., in solution
Method: Human plasma was obtained from the Belgian Red Cross (Vlaams-Brabant, Leuven). […] Frozen (−20° C.) human plasma samples were thawed and thermostated to 37+2° C. Dissolution of the lyophilized peptide and consecutive dilutions were performed in water. […] On every time point 100 μL spiked plasma was transferred to a 500 μL Eppendorf tube and a protein crash was performed using 300 μL methanol+0.1% TFA (4° C.). Suspensions were vortexed for 15 seconds and placed at 4° C. for 30 to 45 minutes. After centrifugation at 14000 rpm for 20 minutes, 100 μL supernatant was diluted with 100 μL water in the injection vial. Injection samples were vortexed for 5 seconds and placed in the autosampler. […] Concentrations were calculated by use of the calibration curve and transferred to a semi-log chart presenting the log concentrations as a function of time. The optimum curve was used to calculate the peptide-half life. Calculations were performed using Microsoft® Office Professional 2010 Excel.

[8] = Peptide gelation (tilted tube / inverted vial test, minimum gelation concentration); format: physicochemical
Method: The peptide gelation occurred by dissolving the TFA salt of the hexapeptide (2 mg) in 100 μL of PBS solution (pH 7.4) or physiological saline solution (0.9% NaCl).
Both peptides 2 and 4 (Table 1) gave a transparent gel in the same conditions (PBS 10 mM at pH 7.4 with a minimum gelation concentration of 24 mM; 2% w/v). To evaluate the mechanical properties of these hydrogels in a more quantitative manner, rheological experiments were performed. The viscoelastic properties of the peptide hydrogels were measured by dynamic rheometry at 37° C. This technique allowed to measure the storage modulus G′ (corresponding to the material's stiffness or rigidity), loss modulus G″ (corresponding to the viscous properties of the material) and loss factor tan (o) (ratio of G″ over G′). According to the Winter-Chambon criterion, a material reaches gelation in rheological terms if the phase angle o gets frequency-independent (F. Chambon et al., 1987 and H. Winter et al., 1987).
The peptide gelation occurred by dissolving the TFA salt of the peptide in 100 μL of PBS solution or physiological saline solution (0.9% NaCl) (pH 7.4).
The peptide gelation occurs by dissolving the TFA salt of the hydrogelator (1 or 2 mg) in 100 μL of aqueous media, PBS solution (pH 7.4) or physiological saline solution (0.9% NaCl). After successive vortexing and sonication, the gel is left to rest overnight at room temperature.
The hydrogelation was realized under physiologically relevant conditions, namely via the addition of phosphate-buffered saline (PBS) or sterile physiological saline solution (0.9% NaCl). The needed amount of hydrogelator was weighed in an Eppendorf® and solubilized by the addition of the above solutions. After vortex and sonication steps, the resulting solution was left at room temperature until gelation occurred. The gelation was qualitatively verified by the inverted vial test (if no gravitational flow was visible the gelation was considered successful). It can be noticed that all peptide hydrogelators depicted formed gels in PBS and saline solution at a concentration of 1 to 2% w/v.

[9] = in vitro; details: human, plasma
Method: Human plasma was obtained from the Belgian Red Cross (Vlaams-Brabant, Leuven). Prior to the stability test, selectivity, stability of the compound in the injection solvent, linearity, accuracy and precision of the method were investigated. Frozen (−20° C.) human plasma samples were thawed and thermostated to 37±2° C. Dissolution of the lyophilized peptide and consecutive dilutions were performed in water. The resulting aqueous solutions of each peptide individually was spiked in human plasma (10:90 v/v) with final plasma concentrations of 9 μM.
On every time point 100 μL spiked plasma was transferred to a 500 μL Eppendorf tube and a protein crash was performed using the corresponding precipitation solvent (4° C.). Suspensions were vortexed for 15 s and placed at 4° C. for 30 to 45 min. After centrifugation at 18 625 g for 20 min, 100 μL supernatant was diluted with 100 μL water in the injection vial.
Injection samples were vortexed for 5 sand placed in the autosampler. […] Concentrations were calculated by use of the calibration curve and transferred to a semi-log chart presenting the log concentrations as a function of time. The optimum curve was used to calculate the peptide half-life. Calculations were performed using Microsoft® Office Professional 2010 Excel.

[10] = pH of the hydrogel; format: physicochemical
[11] = In vivo monitoring of cargo release with SPECT/CT; set-up: species or system C57Bl/6J mice
Method: The ^111In-labeled molecules were diluted up to 1 ml with PBS and either used as such, or incorporated within the hydrogel as described below.
Images were reconstructed using a filtered back-projection algorithm.
Images were quantified using the software AMIDE (sourceforge.net).

[12] = molecular target: MOR (Homo sapiens, UniProt P35372); test: Binding tests (Ki) MOR
[13] = molecular target: DOR (Homo sapiens, UniProt P41143); test: Binding tests (Ki) DOR
[14] = molecular target: KOR (Homo sapiens, UniProt P41145); test: Binding tests (Ki) KOR
[15] = Stability and degradability of biogels in human plasma (Example 8); format: in vitro ADME; details: human plasma, 37° C.; for half-life at 14 μM: human, in solution
Method: After centrifugation at 14 000 rpm for 15 minutes, 100 μL supernatant was diluted with 100 μL milliQ water in the injection vial. Injection samples were vortexed for 5 seconds and were analyzed by HPLC. […] Calculations were performed using Microsoft® Office Professional 2010 Excel.

Chain of MOR (P35372 whole entry): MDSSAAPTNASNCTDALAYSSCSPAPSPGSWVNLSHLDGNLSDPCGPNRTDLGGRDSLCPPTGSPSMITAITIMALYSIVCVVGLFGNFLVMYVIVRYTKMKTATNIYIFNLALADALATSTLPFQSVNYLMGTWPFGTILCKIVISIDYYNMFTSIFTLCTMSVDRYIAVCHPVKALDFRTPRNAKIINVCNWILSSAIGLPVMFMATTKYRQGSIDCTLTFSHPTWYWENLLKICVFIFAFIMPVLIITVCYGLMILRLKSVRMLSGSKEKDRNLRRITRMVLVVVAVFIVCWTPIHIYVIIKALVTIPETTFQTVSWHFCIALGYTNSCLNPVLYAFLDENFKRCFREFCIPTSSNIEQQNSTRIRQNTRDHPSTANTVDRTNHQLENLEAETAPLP
Chain of KOR (P41145 whole entry): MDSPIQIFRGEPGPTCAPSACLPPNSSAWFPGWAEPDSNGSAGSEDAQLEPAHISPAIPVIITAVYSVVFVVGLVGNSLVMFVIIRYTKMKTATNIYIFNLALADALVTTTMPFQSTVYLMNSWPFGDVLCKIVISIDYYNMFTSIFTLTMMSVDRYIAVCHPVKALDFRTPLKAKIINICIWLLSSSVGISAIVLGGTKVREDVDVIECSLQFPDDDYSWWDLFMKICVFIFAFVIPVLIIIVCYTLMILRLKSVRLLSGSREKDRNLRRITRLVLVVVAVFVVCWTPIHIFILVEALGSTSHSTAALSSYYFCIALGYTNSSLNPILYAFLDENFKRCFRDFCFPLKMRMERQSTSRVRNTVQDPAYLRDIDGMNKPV
Chain of DOR (P41143 whole entry): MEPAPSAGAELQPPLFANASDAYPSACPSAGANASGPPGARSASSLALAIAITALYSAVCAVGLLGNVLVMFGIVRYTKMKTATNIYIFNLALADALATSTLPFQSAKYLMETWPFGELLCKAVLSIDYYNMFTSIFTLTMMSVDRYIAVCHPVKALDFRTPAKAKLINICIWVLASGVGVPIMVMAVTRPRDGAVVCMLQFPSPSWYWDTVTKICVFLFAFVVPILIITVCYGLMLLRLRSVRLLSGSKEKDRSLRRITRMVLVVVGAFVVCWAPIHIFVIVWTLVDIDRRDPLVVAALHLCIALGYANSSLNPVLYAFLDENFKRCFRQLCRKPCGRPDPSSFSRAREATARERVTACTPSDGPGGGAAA

Molecule: IRDye 800CW carboxylate
- Time the fluorescent signal remains visible ([1]; dye co-formulated within hydrogel of peptide 2 (2 w/v%), s.c.): more than 24 h
- Fluorescent signal at the injection site ([1]; dye injected s.c. as solution): reduces drastically within approximately two hours

Molecule: FEFQFK-NH2 [peptide 2, H-Phe-Glu-Phe*-Gln-Phe-Lys-NH2]
- Cytotoxicity in vitro [2]: showed no cytotoxicity in vitro
- Fibre thickness ([3]; TEM, Example 2): ca. 10 nm
- Fibre diameter ([3]; cryoTEM and negative staining, Example 9): ~5 nm
- Storage modulus G′ [4]: ca. 8000 Pa
- Hydrogel volume remaining ([5]; 12 h): 24%
- Hydrogel volume remaining ([5]; 72 h post-injection): 9%
- Time within which most degradation occurred ([5]; after subcutaneous injection of the hydrogel): ≤ 12 h
- Cytotoxicity (Live/Dead cell viability, qualitative) [6]: the majority of cells were green fluorescent and thus, were viable; also recorded: noncytotoxic
- half-life at 72 μM [7]: ~15 min
- Re-gelation after injection ([8]; 25G needle used for s.c. injections): immediate re-gelation after injection through a 25G needle
- Minimum gelation concentration ([8]; PBS 10 mM, pH 7.4): 24 mM
- Minimum gelation concentration ([8]; PBS 10 mM, pH 7.4 (text, Examples 1-2)): 2 % w/v
- Minimum gelation concentration (w/v % in PBS) ([8]; in PBS, '/' = no gel): 2 w/v %
- half-life at 9 μM [9]: ~15 min
- pH of the gel [10]: 4.02

Molecule: DOTA-4-amino-2-cyclohexylmethyl-indolo[3,4-c]azepin-2-on [small molecule 3]
- Clearance from the injection site ([11]; 111In-labeled cargo s.c. in solution, 1 mg/ml): totally cleared within three hours
- Release profile ([11]; co-formulated within hydrogel of peptide 2, s.c.): released in a rather fast manner

Molecule: FEFQFK [peptide 1, H-Phe-Glu-Phe*-Gln-Phe-Lys-OH]
- half-life at 72 μM [7]: ~2 min
- Minimum gelation concentration ([8]; in mQ:PBS 50:50): 1 (in mQ:PBS w/v %
- pH of the gel ([10]; listed as MBG-1): < 4 and 3.49

Molecule: Cc1cc(O)cc(C)c1C[C@H](N)C(=O)N[C@H](CCCCN)C(=O)N[C@@H](Cc1ccccc1)C(=O)N[C@@H](Cc1ccccc1)C(=O)N[C@@H](CCC(=O)O)C(=O)N[C@@H](Cc1ccccc1)C(=O)N[C@@H](CCC(N)=O)C(=O)N[C@@H](Cc1ccccc1)C(=O)N[C@@H](CCCCN)C(N)=O [CM-53, Dmt-DLys-Phe-Phe-Glu-Phe*-Gln-Phe-Lys-NH2] (H-[Dmt][dK]FFEFQFK-NH2; N-terminus assumed)
- Ki [12]: 7.4 nM
- Ki [13]: 24 nM
- Ki [14]: 337 nM
- Time at which degradation of the heptapeptide into the N-terminal pentapeptide started [15]: 7.5 min
- Time at which degradation of the pentapeptide into tripeptide was observed [15]: 60 min
- Time of appearance of the heptapeptide (loss of Phe-Lys-NH2) [15]: 2.5 min
- half-life at 14 μM [15]: ~18 min

Molecule: Cc1cc(O)cc(C)c1C[C@H](N)C(=O)N1CCC[C@H]1C(=O)N[C@@H](Cc1c[nH]c2ccccc12)C(=O)N[C@@H](Cc1ccccc1)C(=O)N[C@@H](CCC(N)=O)C(=O)N[C@@H](Cc1ccccc1)C(=O)N[C@@H](CCC(N)=O)C(=O)N[C@@H](Cc1ccccc1)C(=O)N[C@@H](CCCCN)C(N)=O [CM-58, Dmt-Pro-Trp-Phe-Gln-Phe*-Gln-Phe-Lys-NH2] (H-[Dmt]PWFQFQFK-NH2; N-terminus assumed)
- Ki [12]: 7.5 nM
- Ki [13]: 15 nM
- Ki [14]: 120 nM
- half-life at 14 μM [15]: ~12 min
